Active and inactive are the calls of the source. No cut-off for these calls is given here. Where a SMILES comes first, the peptide text is derived from it. Bridges are numbered along the chain shown (N, C = ends). [ ]: non-standard residue; d: D form. The star is where a group is joined. X1 = CC[C@H](C)CCCCC(=O)*; dDab = NCC[C@@H](N)C(=O)O; Dab = NCC[C@H](N)C(=O)O
Experiments:
Details in all cases: dose 0.25-4 mg/L
Pseudomonas aeruginosa [1] = assay: Antibacterial activity against Pseudomonas aeruginosa ATCC 27853 assessed as decrease in bacterial growth at 0.25 to 4 mg/L in presence of lung surfactant by broth microdilution assay; assay type: functional, organism-based
Klebsiella pneumoniae [2] = assay: Antibacterial activity against Klebsiella pneumoniae FADDI-KP065 assessed as decrease in bacterial growth at 0.25 to 4 mg/L in presence of lung surfactant by broth microdilution assay; assay type: functional, organism-based
Acinetobacter baumannii [3] = assay: Antibacterial activity against Acinetobacter baumannii FADDI-AB030 assessed as decrease in bacterial growth at 0.25 to 4 mg/L in presence of lung surfactant by broth microdilution assay; assay type: functional, organism-based
Klebsiella pneumoniae [4] = assay: Antibacterial activity against Klebsiella pneumoniae FADDI-KP065 assessed as fold increase in MIC at 0.25 to 4 mg/L in presence of lung surfactant by broth microdilution assay; assay type: functional
Pseudomonas aeruginosa [5] = assay: Antibacterial activity against Pseudomonas aeruginosa ATCC 27853 assessed as fold increase in MIC at 0.25 to 4 mg/L in presence of lung surfactant by broth microdilution assay; assay type: functional
Acinetobacter baumannii [6] = assay: Antibacterial activity against Acinetobacter baumannii FADDI-AB030 assessed as fold increase in MIC at 0.25 to 4 mg/L in presence of lung surfactant by broth microdilution assay; assay type: functional

Compound	Activity (Pseudomonas aeruginosa [1])	Activity (Klebsiella pneumoniae [2])	Activity (Acinetobacter baumannii [3])	fold change (FC) (Klebsiella pneumoniae [4])	fold change (FC) (Pseudomonas aeruginosa [5])	fold change (FC) (Acinetobacter baumannii [6])
CCCCCCCCCC(=O)N[C@@H](CCN)C(=O)N[C@H](C(=O)N[C@@H](CCN)C(=O)N[C@H]1CCNC(=O)[C@H]([C@@H](C)O)NC(=O)[C@H](CCN)NC(=O)[C@H](CCN)NC(=O)[C@H]([C@H](C)O)NC(=O)[C@@H](CC(C)C)NC(=O)[C@H](CCN)NC1=O)[C@@H](C)O	Active	Active	Active			
COLISTIN	Active	Active	Active	2	4	4
CC[C@H](C)CCCCC(=O)N[C@@H](CCN)C(=O)N[C@H](C(=O)N[C@H](CCN)C(=O)N[C@H]1CCNC(=O)[C@H]([C@@H](C)O)NC(=O)[C@H](CCN)NC(=O)[C@H](CCN)NC(=O)[C@H]([C@@H](C)O)NC(=O)[C@@H](CC(C)C)NC(=O)[C@H](CCN)NC1=O)[C@@H](C)O (X1-[Dab]T[dDab][Dab][Dab][dL]T[Dab][Dab]T; lactam 4-C)	Active	Active	Active	8	2	4
CCCCCCCC[C@@H]1NC(=O)[C@@H](Cc2ccccc2)NC(=O)[C@@H](CCN)NC(=O)[C@@H](NC(=O)[C@H](CCN)NC(=O)[C@@H](NC(=O)[C@H](CCN)NC(=O)CCCCCCC)[C@@H](C)O)CCNC(=O)[C@H]([C@@H](C)O)NC(=O)[C@H](CCN)NC(=O)[C@H](CCN)NC1=O				2	8	2
CCCCCC(=O)N[C@@H](CCN)C(=O)N[C@@H](C(=O)N[C@@H](CCN)C(=O)N[C@H]1CCNC(=O)[C@@H]([C@H](C)O)NC(=O)[C@H](CCN)NC(=O)[C@H](CCN)NC(=O)[C@H]([C@H](C)O)NC(=O)[C@@H](CC(C)C)NC(=O)[C@H](CCN)NC1=O)[C@H](C)O	inactive	inactive	inactive			
CC[C@H](C)CCCCC(=O)N[C@@H](CCN)C(=O)N[C@H](C(=O)N[C@@H](CCN)C(=O)N[C@H]1CCNC(=O)[C@H]([C@@H](C)O)NC(=O)[C@H](CCN)NC(=O)[C@H](CCN)NC(=O)[C@H]([C@@H](C)O)NC(=O)[C@@H](CC(C)C)NC(=O)[C@H](CCN)NC1=O)[C@@H](C)O (X1-[Dab]T[Dab][Dab][Dab][dL]T[Dab][Dab]T; lactam 4-C)	Active	Active	Active	4	2	4
CC[C@H](C)CCCCC(=O)N[C@@H](CCN)C(=O)N[C@H](C(=O)N[C@@H](CCN)C(=O)N[C@H]1CCNC(=O)[C@H]([C@@H](C)O)NC(=O)[C@H](CCN)NC(=O)[C@H](CCN)NC(=O)[C@H](CC(C)C)NC(=O)[C@@H](Cc2ccccc2)NC(=O)[C@H](CCN)NC1=O)[C@@H](C)O (X1-[Dab]T[Dab][Dab][Dab][dF]L[Dab][Dab]T; lactam 4-C)	Active	Active	Active			
